# Reference: ChEMBL document CHEMBL5036317, “Identification of Unique Quinazolone Thiazoles as Novel Structural Scaffolds for Potential Gram-Negative Bacterial Conquerors” (J Med Chem, 2021)
# Columns and labels:
# Staphylococcus aureus [1] = assay: Antibacterial activity against Staphylococcus aureus assessed as inhibition of bacterial growth measured after 24 hrs by two-fold serial dilution method; format: functional
# Acinetobacter baumannii = assay: Antibacterial activity against Acinetobacter baumanii assessed as inhibition of bacterial growth measured after 24 hrs by two-fold serial dilution method; format: functional
# Staphylococcus aureus [2] = assay: Antibacterial activity against Staphylococcus aureus ATCC 29213 assessed as inhibition of bacterial growth measured after 24 hrs by two-fold serial dilution method; format: functional
# Pseudomonas aeruginosa [3] = assay: Antibacterial activity against Pseudomonas aeruginosa ATCC 27853 assessed as inhibition of bacterial growth measured after 24 hrs by two-fold serial dilution method; format: functional
# Enterococcus faecalis = assay: Antibacterial activity against Enterococcus faecalis assessed as inhibition of bacterial growth measured after 24 hrs by two-fold serial dilution method; format: functional
# Escherichia coli [4] = assay: Antibacterial activity against Escherichia coli ATCC 25922 assessed as inhibition of bacterial growth measured after 24 hrs by two-fold serial dilution method; format: functional
# Escherichia coli [5] = assay: Antibacterial activity against Escherichia coli assessed as inhibition of bacterial growth measured after 24 hrs by two-fold serial dilution method; format: functional
# Pseudomonas aeruginosa [6] = assay: Antibacterial activity against Pseudomonas aeruginosa assessed as inhibition of bacterial growth measured after 24 hrs by two-fold serial dilution method; format: functional
# Staphylococcus aureus [7] = assay: Antibacterial activity against methicillin-resistant Staphylococcus aureus assessed as inhibition of bacterial growth measured after 24 hrs by two-fold serial dilution method; format: functional
# Staphylococcus aureus [8] = assay: Antibacterial activity against Staphylococcus aureus ATCC 25923 assessed as inhibition of bacterial growth measured after 24 hrs by two-fold serial dilution method; format: functional
# Klebsiella pneumoniae = assay: Antibacterial activity against Klebsiella pneumoniae assessed as inhibition of bacterial growth measured after 24 hrs by two-fold serial dilution method; format: functional
# [9] = Haemolytic activity in human erythrocytes incubated for 2 hrs; format: ADME, cell-based, Erythrocyte
Compound,MIC (Staphylococcus aureus [1]) [µg/mL],MIC (Acinetobacter baumannii) [µg/mL],MIC (Staphylococcus aureus [2]) [µg/mL],MIC (Pseudomonas aeruginosa [3]) [µg/mL],MIC (Enterococcus faecalis) [µg/mL],MIC (Escherichia coli [4]) [µg/mL],MIC (Escherichia coli [5]) [µg/mL],MIC (Pseudomonas aeruginosa [6]) [µg/mL],MIC (Staphylococcus aureus [7]) [µg/mL],MIC (Staphylococcus aureus [8]) [µg/mL],MIC (Klebsiella pneumoniae) [µg/mL],HC50 at 2 h [9] [µg/mL]
O=C(/C(=C/c1ccc(Cl)cc1Cl)n1cnc2cc(Cl)ccc2c1=O)c1nccs1,32,16,2,1,8,2,2,8,8,1,1,176
O=C(/C(=C/c1ccc([N+](=O)[O-])cc1)n1cnc2cc(Cl)ccc2c1=O)c1nccs1,2,4,2,4,2,2,64,4,8,4,16,> 250
O=C(/C(=C/c1ccc(F)cc1F)n1cnc2cc(Cl)ccc2c1=O)c1nccs1,8,2,8,4,8,2,8,8,8,2,8,203
Cc1ccc2c(/C=C(/C(=O)c3nccs3)n3cnc4cc(Cl)ccc4c3=O)c[nH]c2c1,512,8,32,8,64,16,128,64,32,32,64,> 250
O=C(/C(=C/c1cccc(Cl)c1)n1cnc2cc(Cl)ccc2c1=O)c1nccs1,32,1,8,4,128,4,4,32,8,8,128,> 250
O=C(/C(=C/c1ccccc1Cl)n1cnc2cc(Cl)ccc2c1=O)c1nccs1,16,512,4,2,1,2,8,2,2,1,4,195
Cc1ccc(/C=C(/C(=O)c2nccs2)n2cnc3cc(Cl)ccc3c2=O)cc1,4,1,4,1,8,1,32,4,64,2,128,> 250
O=C(/C(=C/c1c[nH]c2cc(Cl)ccc12)n1cnc2cc(Cl)ccc2c1=O)c1nccs1,512,512,2,64,2,2,64,256,32,2,64,> 250
N#Cc1ccc(/C=C(/C(=O)c2nccs2)n2cnc3cc(Cl)ccc3c2=O)cc1,32,512,1,2,1,4,16,2,4,1,8,> 250
O=C(/C(=C/c1ccco1)n1cnc2cc(Cl)ccc2c1=O)c1nccs1,64,16,8,32,8,16,128,64,32,8,64,> 250
